From US12559529B2, “NPY2 receptor agonists” (Boehringer Ingelheim International GmbH, priority 2019, dated 2026) come the findings set out here.

*1 amine or outer side, *2 acyl side, *3 side chain or, on linkers, in order; H or OH if unused. Where a SMILES comes first, the peptide text is derived from it. Side-chain parts run from the residue outwards. The star is where a group is joined. C18 diacid = O=C(O)CCCCCCCCCCCCCCCCC(=O)*; γGlu = O=C(O)[C@H](CCC(=O)[*:2])N[*:1]; Isovaleryl = CC(C)CC(=O)*; AEEA = NCCOCCOCC(=O)O

The assay deals with T1, Human Neuropeptide Y2 Receptor (Homo sapiens, UniProt P49146).
T1 construct: purchased CHEMICON HTS066M
T1 sequence (P49146 1-381): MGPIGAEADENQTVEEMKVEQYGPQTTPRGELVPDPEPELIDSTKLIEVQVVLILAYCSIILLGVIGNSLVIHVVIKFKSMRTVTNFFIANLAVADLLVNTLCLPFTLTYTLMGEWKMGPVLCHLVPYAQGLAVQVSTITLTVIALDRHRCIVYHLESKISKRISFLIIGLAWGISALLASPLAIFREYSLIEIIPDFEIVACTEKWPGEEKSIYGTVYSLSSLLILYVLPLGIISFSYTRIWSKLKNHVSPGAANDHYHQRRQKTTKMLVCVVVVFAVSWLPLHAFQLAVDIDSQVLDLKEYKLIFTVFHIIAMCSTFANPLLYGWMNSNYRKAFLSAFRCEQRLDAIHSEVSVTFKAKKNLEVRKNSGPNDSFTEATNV
Description: Radioligand binding competition assay (RLB). The conditions noted are these: Table 3; human 125I-PYY (1-36) 0.02 nM, Y2 receptor membranes; read-out: Ki. In outline: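 Membranes (0.5 μg/well) and test peptides, serially diluted from 1 mM DMSO stocks, were incubated 2 hours at room temperature in HEPES buffer pH 7.4 with Mg, Ca and ovalbumin.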
The Ki is the dissociation constant of the complex between target and ligand, obtained from inhibition or displacement. Consider `CC(C)CC(=O)N[C@@H](C)C(=O)N1CCC[C@H]1C(=O)N[C@@H](CCC(=O)O)C(=O)N[C@@H](CCCCNC(=O)COCCOCCNC(=O)COCCOCCNC(=O)CC[C@H](NC(=O)CCCCCCCCCCCCCCCCC(=O)O)C(=O)O)C(=O)N1CCC[C@H]1C(=O)N1CCC[C@H]1C(=O)N[C@@H](CCC(=O)O)C(=O)N[C@@H](CC(=O)O)C(=O)N[C@@H](C)C(=O)N[C@H](C(=O)N1CCC[C@H]1C(=O)N[C@@H](CCC(=O)O)C(=O)N[C@@H](CCC(=O)O)C(=O)N[C@@H](CC(C)C)C(=O)N[C@@H](CCC(N)=O)C(=O)N[C@@H](CCCNC(=N)N)C(=O)N[C@@H](Cc1ccc(O)cc1)C(=O)N[C@@H](Cc1ccc(O)cc1)C(=O)N[C@H](C(=O)N[C@@H](CO)C(=O)N[C@@H](CC(C)C)C(=O)N[C@@H](CCCNC(=N)N)C(=O)N[C@@H](Cc1c[nH]cn1)C(=O)N[C@@H](Cc1ccc(O)cc1)C(=O)N[C@@H](Cc1ccc(O)cc1)C(=O)N[C@@H](CC(N)=O)C(=O)N[C@@H](Cc1c[nH]c2ccccc12)C(=O)N[C@@H](CC(C)C)C(=O)N[C@H](C(=O)N[C@@H](CCCNC(=N)N)C(=O)N[C@@H](CCC(N)=O)C(=O)N[C@@H](CCCNC(=N)N)C(=O)N[C@@H](Cc1ccc(O)cc1)C(N)=O)[C@@H](C)O)C(C)C)[C@@H](C)O` [Compound 26, N{alpha-4}-(3-methylbutanoyl)-N{epsilon-7}-[2-(2-{2-[2-(2-{2-[(4S)-4-carboxy-4-(17-carboxyheptadecanamido)butanamido]ethoxy}ethoxy)acetamido]ethoxy}ethoxy)acetamido]-[4A,7K,9P,13T,18Q,22V,28Y,30W,31L]hPYY (4-36)], for which the Ki was determined as 0.77 nM. Regarding `CC(C)CC(=O)N[C@@H](C)C(=O)N1CCC[C@H]1C(=O)N[C@@H](CCC(=O)O)C(=O)N[C@@H](CCCCNC(=O)COCCOCCNC(=O)COCCOCCNC(=O)CC[C@H](NC(=O)CCCCCCCCCCCCCCCCC(=O)O)C(=O)O)C(=O)N1CCC[C@H]1C(=O)N1CCC[C@H]1C(=O)N[C@@H](CCC(=O)O)C(=O)N[C@@H](CC(=O)O)C(=O)N[C@@H](C)C(=O)N[C@@H](CCC(=O)O)C(=O)N1CCC[C@H]1C(=O)N[C@@H](CCC(=O)O)C(=O)N[C@@H](CCC(=O)O)C(=O)N[C@@H](CC(C)C)C(=O)N[C@@H](CCC(N)=O)C(=O)N[C@@H](CCCNC(=N)N)C(=O)N[C@@H](Cc1ccc(O)cc1)C(=O)N[C@@H](Cc1ccc(O)cc1)C(=O)N[C@H](C(=O)N[C@@H](CO)C(=O)N[C@@H](CC(C)C)C(=O)N[C@@H](CCCNC(=N)N)C(=O)N[C@@H](Cc1c[nH]cn1)C(=O)N[C@@H](Cc1ccc(O)cc1)C(=O)N[C@@H](Cc1ccc(O)cc1)C(=O)N[C@@H](CC(N)=O)C(=O)N[C@@H](Cc1c[nH]c2ccccc12)C(=O)N[C@@H](CC(C)C)C(=O)N[C@H](C(=O)N[C@@H](CCCNC(=N)N)C(=O)N[C@@H](CCC(N)=O)C(=O)N[C@@H](CCCNC(=N)N)C(=O)N[C@@H](Cc1ccc(O)cc1)C(N)=O)[C@@H](C)O)C(C)C` [Compound 27, N{alpha-4}-(3-methylbutanoyl)-N{epsilon-7}-[2-(2-{2-[2-(2-{2-[(4S)-4-carboxy-4-(17-carboxyheptadecanamido)butanamido]ethoxy}ethoxy)acetamido]ethoxy}ethoxy)acetamido]-[4A,7K,9P,13E,18Q,22V,28Y,30W,31L]hPYY (4-36)], the inhibition constant Ki stood at 0.96 nM. The figure for `CC(C)CC(=O)N[C@@H](C)C(=O)N1CCC[C@H]1C(=O)N[C@@H](CCC(=O)O)C(=O)N[C@@H](CCCCNC(=O)COCCOCCNC(=O)COCCOCCNC(=O)CC[C@H](NC(=O)CCCCCCCCCCCCCCCCC(=O)O)C(=O)O)C(=O)N1CCC[C@H]1C(=O)N[C@@H](CCC(=O)O)C(=O)N[C@@H](CCC(=O)O)C(=O)N[C@@H](CC(=O)O)C(=O)N[C@H](C(=O)N[C@@H](CO)C(=O)N1CCC[C@H]1C(=O)N[C@@H](CCC(=O)O)C(=O)N[C@@H](CCC(=O)O)C(=O)N[C@@H](CC(C)C)C(=O)N[C@@H](CCC(N)=O)C(=O)N[C@@H](CCCNC(=N)N)C(=O)N[C@@H](Cc1ccc(O)cc1)C(=O)N[C@@H](Cc1ccc(O)cc1)C(=O)N[C@H](C(=O)N[C@@H](CCC(=O)O)C(=O)N[C@@H](CC(C)C)C(=O)N[C@@H](CCCNC(=N)N)C(=O)N[C@@H](Cc1c[nH]cn1)C(=O)N[C@@H](Cc1ccc(O)cc1)C(=O)N[C@@H](Cc1ccc(O)cc1)C(=O)N[C@@H](CC(N)=O)C(=O)N[C@@H](Cc1c[nH]c2ccccc12)C(=O)N[C@@H](CC(C)C)C(=O)N[C@H](C(=O)N[C@@H](CCCNC(=N)N)C(=O)N[C@@H](CCC(N)=O)C(=O)N[C@@H](CCCNC(=N)N)C(=O)N[C@@H](Cc1ccc(O)cc1)C(N)=O)[C@@H](C)O)C(C)C)[C@@H](C)O` [Compound 28, N{alpha-4}-(3-methylbutanoyl)-N{epsilon-7}-[2-(2-{2-[2-(2-{2-[(4S)-4-carboxy-4-(17-carboxyheptadecanamido)butanamido]ethoxy}ethoxy)acetamido]ethoxy}ethoxy)acetamido]-[4A,7K,9E,12T,18Q,22V,23E,28Y,30W,31L]hPYY (4-36)] is 6.03 nM; for `CC(C)CC(=O)N[C@@H](C)C(=O)N1CCC[C@H]1C(=O)N[C@@H](CCC(=O)O)C(=O)N[C@@H](CCCCNC(=O)COCCOCCNC(=O)COCCOCCNC(=O)CC[C@H](NC(=O)CCCCCCCCCCCCCCCCC(=O)O)C(=O)O)C(=O)N1CCC[C@H]1C(=O)N[C@@H](CCC(=O)O)C(=O)N[C@@H](CCC(=O)O)C(=O)N[C@@H](CC(=O)O)C(=O)N[C@H](C(=O)N[C@@H](CO)C(=O)N1CCC[C@H]1C(=O)N[C@@H](CCC(=O)O)C(=O)N[C@@H](CCC(=O)O)C(=O)N[C@@H](CC(C)C)C(=O)N[C@@H](CCC(N)=O)C(=O)N[C@@H](CCCNC(=N)N)C(=O)N[C@@H](Cc1ccc(O)cc1)C(=O)N[C@@H](CCC(=O)O)C(=O)N[C@H](C(=O)N[C@@H](CO)C(=O)N[C@@H](CC(C)C)C(=O)N[C@@H](CCCNC(=N)N)C(=O)N[C@@H](Cc1c[nH]cn1)C(=O)N[C@@H](Cc1ccc(O)cc1)C(=O)N[C@@H](Cc1ccc(O)cc1)C(=O)N[C@@H](CC(N)=O)C(=O)N[C@@H](Cc1c[nH]c2ccccc12)C(=O)N[C@@H](CC(C)C)C(=O)N[C@H](C(=O)N[C@@H](CCCNC(=N)N)C(=O)N[C@@H](CCC(N)=O)C(=O)N[C@@H](CCCNC(=N)N)C(=O)N[C@@H](Cc1ccc(O)cc1)C(N)=O)[C@@H](C)O)C(C)C)[C@@H](C)O` [Compound 32, N{alpha-4}-(3-methylbutanoyl)-N{epsilon-7}-[2-(2-{2-[2-(2-{2-[(4S)-4-carboxy-4-(17-carboxyheptadecanamido)butanamido]ethoxy}ethoxy)acetamido]ethoxy}ethoxy)acetamido]-[4A,7K,9E,12T,18Q,21E,22V,28Y,30W,31L]hPYY (4-36)] (Isovaleryl-APEK([AEEA-AEEA-γGlu-C18 diacid])PEEDTSPEELQRYEVSLRHYYNWLTRQRY-NH2) it is 4.84 nM; for `CC(C)CC(=O)N[C@@H](C)C(=O)N1CCC[C@H]1C(=O)N[C@@H](CCC(=O)O)C(=O)N[C@@H](CCCCNC(=O)COCCOCCNC(=O)COCCOCCNC(=O)CC[C@H](NC(=O)CCCCCCCCCCCCCCCCC(=O)O)C(=O)O)C(=O)N1CCC[C@H]1C(=O)N[C@@H](CCC(=O)O)C(=O)N[C@@H](CCC(=O)O)C(=O)N[C@@H](CC(=O)O)C(=O)N[C@@H](C)C(=O)N[C@@H](CO)C(=O)N1CCC[C@H]1C(=O)N[C@@H](CCC(=O)O)C(=O)N[C@@H](CCC(=O)O)C(=O)N[C@@H](CC(C)C)C(=O)N[C@@H](CCC(N)=O)C(=O)N[C@@H](CCCNC(=N)N)C(=O)N[C@@H](Cc1ccc(O)cc1)C(=O)N[C@@H](Cc1ccc(O)cc1)C(=O)N[C@H](C(=O)N[C@@H](CO)C(=O)N[C@H](C(=O)N[C@@H](CCCNC(=N)N)C(=O)N[C@@H](Cc1c[nH]cn1)C(=O)N[C@@H](Cc1ccc(O)cc1)C(=O)N[C@@H](Cc1ccc(O)cc1)C(=O)N[C@@H](CC(N)=O)C(=O)N[C@@H](Cc1c[nH]c2ccccc12)C(=O)N[C@@H](CC(C)C)C(=O)N[C@H](C(=O)N[C@@H](CCCNC(=N)N)C(=O)N[C@@H](CCC(N)=O)C(=O)N[C@@H](CCCNC(=N)N)C(=O)N[C@@H](Cc1ccc(O)cc1)C(N)=O)[C@@H](C)O)[C@@H](C)O)C(C)C` [Compound 34, N{alpha-4}-(3-methylbutanoyl)-N{epsilon-7}-[2-(2-{2-[2-(2-{2-[(4S)-4-carboxy-4-(17-carboxyheptadecanamido)butanamido]ethoxy}ethoxy)acetamido]ethoxy}ethoxy)acetamido]-[4A,7K,9E,18Q,22V,24T,28Y,30W,31L]hPYY (4-36)] it is 6.4 nM.
